Earlier results, collected in article PMC12122562, “Phase 1 studies of the indenoisoquinolines LMP776 and LMP744 in patients with solid tumors and lymphomas” (Cancer Chemotherapy and Pharmacology, 2025).

Tested on: naturally occurring lymphomas
Design: method as in PMID 30061364
Details: canines with lymphomas; cited from earlier work

Structure (SMILES) | Responders | Response rate
COc1cc2c3c(n(CCCNCCO)c(=O)c2cc1OC)-c1cc2c(cc1C3=O)OCO2 [LMP744] | 13 of 19 | 68.4%
COc1cc2c3c(n(CCCn4ccnc4)c(=O)c2cc1OC)-c1cc2c(cc1C3=O)OCO2 [LMP776] | 7 of 24 | 29.2%
